From PMC12022103 (Scientific Reports, 2025)
No end group written: not given here.

Legend:
E. coli ATCC 25922 [1] = test: Minimum inhibitory concentration (MIC), broth dilution; format: cell-based, Escherichia coli; conditions: E. coli ATCC 25922; two-fold dilution in MH II broth, 5 × 10^5 CFU/mL, 18–24 h, 37 °C, OD600; triplicate, highest number reported; detection limit <0.5 and >128 µM
Method: (§1) The panel of bacterial reference strains used in this work for assessment of synthetic peptide activity originated from the American Type Culture Collection (ATCC) and was obtained from the Diagnostic section at the Department of Microbiology, Oslo University Hospital. The strains used were as follows: E. coli ATCC 25922, K. pneumoniae ATCC 13883, A. baumannii ATCC 17978, S. aureus ATCC 29213, and E. faecalis ATCC 29212.
(§2) Bacterial strains were plated on cation-adjusted Mueller-Hinton (MH II) agar plates and incubated at 37 °C overnight. The day after single colonies were picked and resuspended in sterile-filtered saline (0.9%). The OD of each bacterial suspension was adjusted to McFarland standard 0.5 using a spectrophotometer (UV-1800, Shimadzu), and the suspension further diluted 1:100 in MH II broth, corresponding to 10^6 colony forming units (CFU) per mL. The inoculum suspension was used for MIC, MBC, time-kill and protease stability assessments as described below. To ensure correct inoculum sizes, 10 µL of the bacterial suspensions were diluted 2000-fold in sterile-filtered saline (0.9%) and 100 µL plated onto MH II agar plates. After overnight incubation at 37 °C, colonies were counted. If found to be outside the acceptable number (20–80 colonies per plate corresponding to ∼10^6 CFU/mL), results from further analyses were discarded.
(§3) The peptides were serially diluted (two-fold) directly in 96-well plates (Greiner, MICROPLATE, 96 WELL, PP, U-BOTTOM, NATURAL, 650261) containing MH II broth, corresponding to concentrations in the range 256–0.5 µM. An equal volume of bacterial suspension was added to each well, resulting in a final inoculum of 5 × 10^5 CFU/mL and final peptide concentrations of 128–0.25 µM. The 96-well plates were incubated for 18–24 h at 37 °C, after which the OD of each well was measured at 600 nm in a plate reader (Victor Nivo, Perkin-Elmer). The minimum inhibitory concentration (MIC) was estimated as the lowest concentration of peptide that produced OD600 measurements similar to the control wells containing no bacteria. The experiments were performed in triplicate. Two-fold variations in MIC values were often observed between replicates.

E. faecalis ATCC 29212 [2] = test: as above; format: cell-based; conditions: E. faecalis ATCC 29212; MH II broth, 5 × 10^5 CFU/mL, 18–24 h, 37 °C, OD600; triplicate, highest number reported; detection limit <0.5 and >128 µM
Method: as §1, §2, §3

K. pneumoniae ATCC 13883 [3] = test: as above; format: cell-based; conditions: K. pneumoniae ATCC 13883; MH II broth, 5 × 10^5 CFU/mL, 18–24 h, 37 °C, OD600; triplicate, highest number reported; detection limit <0.5 and >128 µM
Method: as §1, §2, §3

A. baumannii ATCC 17978 [4] = test: as above; format: cell-based; conditions: MH II broth, 5 × 10^5 CFU/mL, 18–24 h, 37 °C, OD600, triplicate, highest number reported, detection limit <0.5 and >128 µM
Method: as §1, §2, §3

S. aureus ATCC 29213 [5] = test: as above; format: cell-based; conditions: S. aureus ATCC 29213; MH II broth, 5 × 10^5 CFU/mL, 18–24 h, 37 °C, OD600; triplicate, highest number reported; detection limit <0.5 and >128 µM
Method: as §1, §2, §3

P. aeruginosa [6] = test: as above; format: cell-based; conditions: MH II broth, 5 × 10^5 CFU/mL, 18–24 h, 37 °C, OD600; triplicate, highest number reported; detection limit <0.5 and >128 µM
P. aeruginosa [7] = test: Minimum bactericidal concentration (MBC); format: cell-based; conditions: 5 µL from MIC wells plated on MH II agar, 37 °C overnight, no visible colonies; triplicate, highest number reported
E. faecalis ATCC 29212 [8] = test: Minimum bactericidal concentration (MBC); format: cell-based; conditions: 5 µL from MIC wells plated on MH II agar, 37 °C overnight, no visible colonies, triplicate, highest number reported
Method: as §1, §2
(§4) In order to assess the minimum bactericidal concentration (MBC) of peptides, 5 µL from each well of the 96-well plate used for MIC analysis was plated onto MH II agar and incubated at 37 °C overnight. […] The experiments were performed in triplicate. Two-fold variations in MIC values were often observed between replicates.

K. pneumoniae ATCC 13883 [9] = test: Minimum bactericidal concentration (MBC); format: cell-based; conditions: 5 µL from MIC wells plated on MH II agar, 37 °C overnight, no visible colonies, triplicate, highest number reported
Method: as §1, §2, §4

A. baumannii ATCC 17978 [10] = test: Minimum bactericidal concentration (MBC); format: cell-based; conditions: 5 µL from MIC wells plated on MH II agar, 37 °C overnight, no visible colonies, triplicate, highest number reported
Method: as §1, §2, §4

S. aureus ATCC 29213 [11] = test: Minimum bactericidal concentration (MBC); format: cell-based; conditions: 5 µL from MIC wells plated on MH II agar, 37 °C overnight, no visible colonies, triplicate, highest number reported
Method: as §1, §2, §4

E. coli ATCC 25922 [12] = test: Minimum bactericidal concentration (MBC); format: cell-based, Escherichia coli; conditions: 5 µL from MIC wells plated on MH II agar, 37 °C overnight, no visible colonies, triplicate, highest number reported, detection limit <0.5 and >128 µM
Method: as §1, §2, §4

KKKKFVLKLILKLL-NH2 [2e-N12]
> 128 µM: MIC, E. coli (E. coli ATCC 25922 [1]) | MIC, E. faecalis (E. faecalis ATCC 29212 [2]) | MIC, K. pneumoniae (K. pneumoniae ATCC 13883 [3]) | MIC, A. baumannii (A. baumannii ATCC 17978 [4]) | MIC, S. aureus (S. aureus ATCC 29213 [5]) | MIC, P. aeruginosa (P. aeruginosa [6]) | MBC, P. aeruginosa (P. aeruginosa [7]) | MBC, E. faecalis (E. faecalis ATCC 29212 [8]) | MBC, K. pneumoniae (K. pneumoniae ATCC 13883 [9]) | MBC, A. baumannii (A. baumannii ATCC 17978 [10]) | MBC, S. aureus (S. aureus ATCC 29213 [11]) | MBC, E. coli (E. coli ATCC 25922 [12])

KKKKFVLQLILKLL-NH2 [2f-N12]
> 128 µM: MIC, E. coli (E. coli ATCC 25922 [1]) | MIC, E. faecalis (E. faecalis ATCC 29212 [2]) | MIC, K. pneumoniae (K. pneumoniae ATCC 13883 [3]) | MIC, A. baumannii (A. baumannii ATCC 17978 [4]) | MIC, S. aureus (S. aureus ATCC 29213 [5]) | MIC, P. aeruginosa (P. aeruginosa [6]) | MBC, P. aeruginosa (P. aeruginosa [7]) | MBC, E. faecalis (E. faecalis ATCC 29212 [8]) | MBC, K. pneumoniae (K. pneumoniae ATCC 13883 [9]) | MBC, A. baumannii (A. baumannii ATCC 17978 [10]) | MBC, S. aureus (S. aureus ATCC 29213 [11]) | MBC, E. coli (E. coli ATCC 25922 [12])

KKKKIAVLQLILLFL-NH2 [2b-N12]
> 128 µM: MIC, E. coli (E. coli ATCC 25922 [1]) | MIC, E. faecalis (E. faecalis ATCC 29212 [2]) | MIC, K. pneumoniae (K. pneumoniae ATCC 13883 [3]) | MIC, A. baumannii (A. baumannii ATCC 17978 [4]) | MIC, S. aureus (S. aureus ATCC 29213 [5]) | MIC, P. aeruginosa (P. aeruginosa [6]) | MBC, P. aeruginosa (P. aeruginosa [7]) | MBC, E. faecalis (E. faecalis ATCC 29212 [8]) | MBC, K. pneumoniae (K. pneumoniae ATCC 13883 [9]) | MBC, A. baumannii (A. baumannii ATCC 17978 [10]) | MBC, S. aureus (S. aureus ATCC 29213 [11]) | MBC, E. coli (E. coli ATCC 25922 [12])

KKKKIIAVLQLILLFL-NH2 [2c-N12]
> 128 µM: MIC, E. coli (E. coli ATCC 25922 [1]) | MIC, E. faecalis (E. faecalis ATCC 29212 [2]) | MIC, K. pneumoniae (K. pneumoniae ATCC 13883 [3]) | MIC, A. baumannii (A. baumannii ATCC 17978 [4]) | MIC, S. aureus (S. aureus ATCC 29213 [5]) | MIC, P. aeruginosa (P. aeruginosa [6]) | MBC, P. aeruginosa (P. aeruginosa [7]) | MBC, E. faecalis (E. faecalis ATCC 29212 [8]) | MBC, K. pneumoniae (K. pneumoniae ATCC 13883 [9]) | MBC, A. baumannii (A. baumannii ATCC 17978 [10]) | MBC, S. aureus (S. aureus ATCC 29213 [11]) | MBC, E. coli (E. coli ATCC 25922 [12])
